# Data published in patent publication US8754057B2, “Inhibition of apoptosis-specific eIF-5A(eIF-5A1″) with antisense oligonucleotides and siRNA as anti-inflammatory therapeutics” (Senesco Technologies, Inc., priority 2003, dated 2014).
# Tested on: lamina cribrosa cell line #506
# Assay: TUNEL labeling of siRNA-transfected LC cells treated with TNF-α and camptothecin
# Type: cell-based, human
# Conditions: LC #506, TNF-α and camptothecin 24 h
# Experimental: Lamina cribrosa cell line #506 cells were seeded at 7500 cells per well onto an 8-well culture slide. Three days later the LC cells were transfected with either apoptosis-specific eIF-5A siRNA #1 (SEQ ID NO:30) or control siRNA #5 (SEQ ID NO:34). 72 hours after transfection, the transfected cells were treated with 10 ng/ml TNF-α plus 50 μM camptothecin. Twenty-four hours later the cells were stained with Hoescht 33258 and DNA fragmentation was evaluated in situ using the terminal deoxynucleotidyl transferase-mediated dUTP-digoxigenin nick end labeling (TUNEL) method. Panel A represents the slide observed by fluorescence microscopy using a fluorescein filter to visualize TUNEL-labeling of the fragmented DNA of apoptotic cells. Panel B represents the same slide observed by through a UV filter to visualize the Hoescht-stained nuclei. The results are representative of two independent experiments. All pictures were taken at 400 times magnification.
# Transfected cells that had been treated with TNF-α and camptothecin for 24 hours were stained with Hoescht 33258 in order to determine the percentage of cells undergoing apoptosis. Briefly, cells were fixed with a 3:1 mixture of absolute methanol and glacial acetic acid and then incubated with Hoescht stain (0.5 μg/ml Hoescht 33258 in PBS). After a 10 minute incubation in the dark, the staining solution was discarded, the chambers separating the wells of the culture slide were removed, and the slide was washed 3 times for 1 minute with deionized water. After washing, a few drops of Mcllvaine's buffer (0.021 M citric acid, 0.058 M Na2HPO4.7H2O; pH 5.6) was added to the cells and overlaid with a coverslip. The stained cells were viewed under a fluorescent microscope using a UV filter. Cells with brightly stained or fragmented nuclei were scored as apoptotic. A minimum of 200 cells were counted per well. The DeadEnd™ Fluorometric TUNEL (Promega) was also used to detect the DNA fragmentation that is a characteristic feature of apoptotic cells. Following Hoescht staining, the culture slide was washed briefly with distilled water, and further washed by immersing the slide twice for 5 minutes in PBS (137 mM NaCl, 2.68 mM KCl, 1.47 mM KH2PO4, 8.1 mM Na2HPO4), blotting the slide on paper towel between washes. The cells were permeabilized by immersing them in 0.2% Triton X-100 in PBS for 5 minutes. The cells were then washed again by immersing the slide twice for 5 minutes in PBS and blotting the slide on paper towel between washes. 25 μl of equilibration buffer [200 mM potassium cacodylate (pH 6.6), 25 mM. Tris-HCl (pH 6.6), 0.2 mM dithiothreitol, 0.25 mg/ml bovine serum albumin, and 2.5 mM cobalt chloride] was added per well and incubated for 5 to 10 minutes. […] Any cells with brightly stained or fragmented nuclei were scored as apoptotic. […]
substance,measurement,setting,value
"siRNA #1: siRNA against human apoptosis-specific eIF-5A (SEQ ID NO:30); target 5′ AAAGGAATGACTTCCAGCTGA 3′ (SEQ ID NO: 81) (AAAGGAAUGACUUCCAGCUGATT; RNA, all phosphodiester, T or U not given here; listed as Homo sapiens)",LC cells positive for TUNEL staining,3 days after transfection,8%
same,protection from apoptosis relative to the control siRNA,TUNEL,greater than 80%
